Test results reported in patent US9487510B2, “Substituted heterocyclic acetamides as kappa opioid receptor (KOR) agonists” (Dr. Reddy's Laboratories Ltd., priority 2012, dated 2016).

Assays:
[1] = biological target: human KOR receptor (Homo sapiens, UniProt P41145); experiment: IP-One HTRF assay, potency of KOR agonists, dose-response in transiently transfected COS-7 cells; assay type: cell-based
Sequence of human KOR receptor (P41145 whole entry): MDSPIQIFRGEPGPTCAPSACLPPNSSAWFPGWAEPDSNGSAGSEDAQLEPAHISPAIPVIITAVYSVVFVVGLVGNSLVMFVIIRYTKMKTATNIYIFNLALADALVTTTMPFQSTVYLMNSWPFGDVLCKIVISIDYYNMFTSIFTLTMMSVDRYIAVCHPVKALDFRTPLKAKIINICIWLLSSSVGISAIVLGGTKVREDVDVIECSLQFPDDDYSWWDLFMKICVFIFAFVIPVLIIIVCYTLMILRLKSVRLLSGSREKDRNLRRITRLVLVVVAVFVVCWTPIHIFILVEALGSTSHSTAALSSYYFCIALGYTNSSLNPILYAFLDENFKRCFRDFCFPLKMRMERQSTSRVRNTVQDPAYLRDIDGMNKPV

SMILES: O=C(Cc1ccc2oc(=O)n(Cc3ccc(-c4nnn[nH]4)cc3)c2c1)N[C@H](CN1CC[C@H](O)C1)c1ccccc1 [Example 106, 2-(3-(4-(1H-tetrazol-5-yl)benzyl)-2-oxo-2,3-dihydrobenzo[d]oxazol-5-yl)-N-((S)-2-((S)-3-hydroxypyrrolidin-1-yl)-1-phenylethyl)acetamide]
- melting point: 296 to 297 °C
- EC50 [1]: ≤ 50 nM

SMILES: NC(=O)c1cccc(Cn2c(=O)oc3ccc(CC(=O)N[C@H](CN4CCCC4)c4ccccc4)cc32)c1 [Example 91, (S)-3-((2-oxo-5-(2-oxo-2-(1-phenyl-2-(pyrrolidin-1-yl)ethylamino)ethyl)benzo[d]oxazol-3(2H)-yl)methyl)benzamide]
- melting point: 171 to 172 °C
- EC50 [1]: ≤ 50 nM

SMILES: O=C(Cc1ccc2oc(=O)[nH]c2c1)N[C@H](CN1CCCC1)c1cccc(O)c1 [Example 84, (S)-N-(1-(3-hydroxyphenyl)-2-(pyrrolidin-1-yl)ethyl)-2-(2-oxo-2,3-dihydrobenzo[d]oxazol-5-yl)acetamide]
- melting point: 140 to 142 °C
- EC50 [1]: ≤ 50 nM

SMILES: O=C(Cc1ccc2oc(=O)n(Cc3ccccc3)c2c1)N[C@H](CN1CCCC1)c1cccc(O)c1 [Example 20, (S)-2-(3-benzyl-2-oxo-2,3-dihydrobenzo [d]oxazol-5-yl)-N-(1-(3-hydroxyphenyl)-2-(pyrrolidin-1-yl)ethyl)acetamide]
- melting point: 104 to 106 °C
- EC50 [1]: ≤ 50 nM

SMILES: CN(C(=O)Cc1ccc2c(c1)NC(=O)C2)C(CN1CCCC1)c1cccc(OCC(=O)O)c1.Cl (stereo not shown) [Example 87, 2-(3-(1-(N-methyl-2-(2-oxoindolin-6-yl)acetamido)-2-(pyrrolidin-1-yl)ethyl)phenoxy)acetic acid hydrochloride]
- melting point: 169 to 171 °C
- EC50 [1]: ≤ 50 nM

SMILES: CN(C(=O)Cc1ccc2oc(=O)n(C)c2c1)[C@H](CN1CCC(O)C1)c1cccc(-c2nn[nH]n2)c1 (stereo in doubt) [Example 107, N-((S)-1-(3-(2H-tetrazol-5-yl)phenyl)-2-((S)-3-hydroxypyrrolidin-1-yl)ethyl)-N-methyl-2-(3-methyl-2-oxo-2,3-dihydrobenzo[d]oxazol-5-yl)acetamide]
- melting point: 130 to 132 °C
- EC50 [1]: ≤ 50 nM

SMILES: CN(C(=O)Cc1ccc2oc(=O)n(Cc3ccccc3)c2c1)[C@H](CN1CCCC1)c1cccc(O)c1 [Example 89, (S)-2-(3-benzyl-2-oxo-2,3-dihydrobenzo[d]oxazol-5-yl)-N-(1-(3-hydroxyphenyl)-2-(pyrrolidin-1-yl)ethyl)-N-methylacetamide]
- melting point: 165 to 167 °C
- EC50 [1]: 101 to 1000 nM

SMILES: CN(C(=O)Cc1ccc2oc(=O)[nH]c2c1)[C@H](CN1CCC(O)C1)c1cccc(OCC(=O)O)c1.Cl (stereo in doubt) [Example 96, 2-(3-((S)-2-((R)-3-hydroxypyrrolidin-1-yl)-1-(N-methyl-2-(2-oxo-2,3-dihydrobenzo[d]oxazol-5-yl)acetamido)ethyl)phenoxy)acetic acid]
- melting point: 95 to 96 °C
- EC50 [1]: ≤ 50 nM

SMILES: COc1ccc(COc2cccc([C@@H](CN3CCCC3)NC(=O)Cc3ccc4oc(=O)n(Cc5ccccc5)c4c3)c2)cc1 [Example 58, (S)-2-(3-benzyl-2-oxo-2,3-dihydrobenzo[d]oxazol-5-yl)-N-(1-(3-(4-methoxybenzyloxy)phenyl)-2-(pyrrolidin-1-yl)ethyl)acetamide]
- melting point: 72 to 74 °C
- EC50 [1]: ≤ 50 nM

SMILES: CN(C(=O)Cc1ccc2oc(=O)n(Cc3ccc(-c4nnn[nH]4)cc3)c2c1)[C@H](CN1CCC(O)C1)c1ccccc1 (stereo in doubt) [Example 104, 2-(3-(4-(1H-tetrazol-5-yl)benzyl)-2-oxo-2,3-dihydrobenzo[d]oxazol-5-yl)-N-((S)-2-((S)-3-hydroxypyrrolidin-1-yl)-1-phenylethyl)-N-methylacetamide]
- melting point: 218 to 220 °C
- EC50 [1]: ≤ 50 nM

SMILES: O=C(Cc1ccc2[nH]c(=O)ccc2c1)N[C@H](CN1CCC(O)C1)c1ccccc1 (stereo in doubt) [Example 51, N-((S)-2-((R)-3-hydroxypyrrolidin-1-yl)-1-phenylethyl)-2-(2-oxo-1,2-dihydroquinolin-6-yl)acetamide]
- melting point: 196 to 198 °C
- EC50 [1]: 101 to 1000 nM

SMILES: Cn1c(=O)oc2ccc(CC(=O)N[C@H](CN3CCC(O)C3)c3ccccc3)cc21 (stereo in doubt) [Example 45, N-((S)-2-((S)-3-hydroxypyrrolidin-1-yl)-1-phenylethyl)-2-(3-methyl-2-oxo-2,3-dihydrobenzo[d]oxazol-5-yl)acetamide]
- melting point: 105 to 106 °C
- EC50 [1]: ≤ 50 nM

SMILES: CN(C(=O)Cc1ccc2c(c1)NC(=O)C2)[C@H](CN1CC[C@H](O)C1)c1ccccc1 [Example 1, N-((S)-2-((S)-3-hydroxypyrrolidin-1-yl)-1-phenylethyl)-N-methyl-2-(2-oxoindolin-6-yl)acetamide]
- melting point: 166 to 168 °C
- EC50 [1]: 51 to 100 nM

SMILES: N#Cc1ccc(Cn2c(=O)oc3ccc(CC(=O)N[C@H](CN4CC[C@H](O)C4)c4ccccc4)cc32)cc1 [Example 59, 2-(3-(4-cyanobenzyl)-2-oxo-2,3-dihydrobenzo[d]oxazol-5-yl)-N-((S)-2-((S)-3-hydroxypyrrolidin-1-yl)-1-phenylethyl)acetamide]
- melting point: 194 °C
- EC50 [1]: ≤ 50 nM
